SMILES	melting point [°C]
O=C(NCCCCCn1cncn1)c1ccc(Cl)s1	79 to 81
CSc1cc(=O)c2occc2s1	149 to 150
CCc1c2c(cc3c(=O)cc(C(=O)O)oc13)CCCC2	269 to 271
CCN(CC)CCC(=O)Nc1ccc(NC(=O)Nc2ccc(N(CCCl)CCCl)cc2)cc1	178 to 179
NC1N=CC=CC1(N)Br (configuration not stated)	158 to 160
CCOc1nc(N(C)C)nc(=O)[nH]1	215 to 216
Nc1cc(F)ccc1C=C(Br)Br	72 to 73
Oc1ccc2oc(-c3ccc(O)c(F)c3)nc2c1	262 to 268
CCCCCCCc1ccc(C(=O)CCCCC(=O)O)cc1N	100 to 102
CN(CC(N)=O)C(=O)CCl	85 to 86
CCS(=O)(=O)C(F)(F)C(O)(Cn1cncn1)c1ccc(F)cc1F (configuration not stated)	117 to 118
Cc1c(C)n2nnnc2c2nc(C)n(CCNS(C)(=O)=O)c12	> 250
CCC(=O)Nc1nc(CC(=O)Nc2nnc(C(C)(C)C)s2)cs1	210 to 212
CCCCNc1cc(Cl)c(S(C)(=O)=O)cc1C(=O)O	187 to 189
Cc1cc(O)c(S(C)(=O)=O)cc1C(=O)N=C(N)N	> 260
Clc1ccc(CNc2cncnc2)cc1	121
Cc1cc(O)c(S(=O)Cc2ccc(Cl)c(Cl)c2)c(=O)o1 (configuration not stated)	144 to 146
Cn1nnnc1SCC1(C)SC2C(NC(=O)Cn3cnnn3)C(=O)N2C1C(=O)O (configuration not stated)	152 to 154
Cc1cncc2ncc(-c3ccccc3)cc12	135 to 138
CC(=O)N(C)c1nc(C)co1	27 to 29
O=c1[nH]c2cc(Cl)ccc2n1CCO	176 to 178

SMILES	melting point [°C]
Cc1ccc(Cl)c2c1N(C1CC1)CNS2(=O)=O	215 to 217
CC=C1CCC2C3CCC4CC(O)C(OCC)CC4(C)C3C(=NO)CC12C (configuration not stated)	176 to 193
CS(=O)(=O)N(CCBr)N(S(C)(=O)=O)S(C)(=O)=O	147 to 148
N#Cc1ccccc1OCCCCCC(=O)O	77 to 80
CC(=O)C1CCC2C3CCC4CC(O)CCC4(C)C34OC4CC12C (configuration not stated)	160 to 162
OCCC(c1ccccc1)(c1ccccc1)c1ccccc1	103 to 106
COC(=O)c1cccnc1CN1C(=O)C(NC(=O)Nc2cccc(C)c2)N=C(c2ccccc2F)c2ccccc21 (racemic)	171 to 175
Cc1c(O[Si](C)(C)C(C)(C)C)cc(O[Si](C)(C)C(C)(C)C)cc1C(=O)O[Si](C)(C)C(C)(C)C	64
CCOCc1nc2c(c(C)c(C)n3nnnc23)n1CCNS(C)(=O)=O	218 to 222
O=C(O)c1cc(Cl)cc2c1OCCO2	180
CCCC(Cc1ccccc1)c1nc2c([nH]1)c(=O)n(CCC)c(=O)n2CCC (configuration not stated)	158 to 160
CN1CCN(c2cccc3c2C=C(C#N)CC3)CC1	104 to 105
CCn1cc(C(=O)O)c(=O)c2cc(F)c(-c3csc(CN)n3)c(F)c21	199 to 203
CSc1cc(Cl)ccc1C(=O)C(C#N)C(=O)c1cc(C(F)(F)F)cc(C(F)(F)F)c1 (configuration not stated)	146 to 149
OC1CSC(Oc2cc(-c3cncnc3)cnc2Cl)C(O)C1O (configuration not stated)	174 to 189
O=c1n(-c2ccc(Cl)c(Cl)c2)c(=O)n(SC(Cl)(Cl)Cl)n1SC(Cl)(Cl)Cl	167
CS(=O)(=O)c1ccc(C(O)C(CF)N=[N+]=[N-])cc1 (configuration not stated)	121 to 123
C=C(C)c1ccncc1-c1c(O)cc(C(C)C(C)CCCCC)cc1O (configuration not stated)	128 to 129
CC(=O)Nc1ccc(S(F)(F)(F)(F)F)cc1	131 to 132
CCCCCC(=O)SC1CCN(C(C(=O)C2CC2)c2ccccc2F)CC1 (configuration not stated)	64 to 65
CN(CCCCC(=O)O)c1ccc([N+](=O)[O-])cc1C=O	107 to 108

The next lines start with the values.

melting point [°C]	SMILES
198 to 200	C=C(c1cc(Cl)ccc1N1CCCCC1)C(C(N)=O)c1ccc(C(=O)O)cc1 (configuration not stated)
180 to 182	COC(=O)c1cc(Oc2ccc([N+](=O)[O-])cc2)cc(Oc2ccc([N+](=O)[O-])cc2)c1
159 to 161	COc1c(Cc2ccccc2)cc(S(N)(=O)=O)c2ccccc12
200 to 202	CCOCc1nc2c(N)nc3cc(N4CCCC4=O)ccc3c2n1CC(C)(C)O
223 to 224	Cc1ccccc1-c1c(NC(=O)Nc2ccc(F)cc2F)c(=O)oc2cc3c(cc12)CCC3
171 to 172	COc1ccc(CCCC(=O)NC(NC(Cc2ccccc2C)=NC#N)C(C)(C)C)cc1 (configuration not stated)
99 to 100	O=C(COC(=O)c1ccccc1Nc1ccnc2c(C(F)(F)F)cccc12)OC1CCN(Cc2ccccc2)CC1
58 to 60	CN(CCCOC(=O)Cc1ccccc1Nc1c(Cl)cccc1Cl)CC1(SN=O)CCCCC1
125	CC(C)(C)OC(=O)C[C@H](NC(=O)c1cccc(NC(=O)Cc2ccc(C(=N)N)cc2)c1)C(=O)N[C@@H](Cc1ccccc1)C(=O)OC(C)(C)C
95 to 99	O=S(=O)(Oc1ccc2sc(-c3ccc(OCCN4CCCC4)cc3)cc2c1)C(F)(F)F
250 to 251	COc1cccc2c1C(c1ccc(Cl)cc1)NC(=O)C2 (configuration not stated)
194	CCOC(=O)N1CCC(=C2c3ccsc3C=Cn3ccnc32)CC1
53	CCCCCCCCSc1ccc(C=Cc2ccc([N+](=O)[O-])cc2)cc1
171 to 173	O=C(O)Cc1ccc2c(c1)C(=O)Cc1ccccc1C2
82 to 84	COC(=O)c1ccc(C(=O)N2CCN(c3ncccc3NCC(C)C)CC2)nc1
88 to 89	CCCCc1c(Cl)cccc1NC(=O)C(C)(C)C
69 to 71	N#Cc1ccc(CN2C(=O)C3(COc4cc5c(cc43)CCO5)c3ccccc32)cc1 (configuration not stated)
101	COc1ccc(-c2nccc(C)c2OC2SCC(O)C(O)C2O)cc1 (configuration not stated)
205 to 207	CC1CCCC(C)N1Cc1ccc(COc2cccc3c2CN(C2CCC(=O)NC2=O)C3=O)cc1 (configuration not stated)
158 to 169	N=C(Cc1ccccc1)Nc1ncccc1OCc1ccccc1Br

melting point [°C]	SMILES
215 to 220	Cc1cccc(NC(=O)c2cc(C(F)(F)F)nn2-c2ccccc2Cl)c1NC(=O)C(C)C
158 to 159	Cc1ccc(S(=O)(=O)OC[C@H]2COc3ccc([N+](=O)[O-])c(CC(=O)O)c3O2)cc1
199	O=C1OCCN1c1ccc2cc[nH]c2c1
126 to 128	COC(=O)c1ccc(OCC2CC(=O)N(c3ccc(OC(C)(C)C)cc3)C2)cc1 (configuration not stated)
263 to 264	c1ccc2c(c1)CCc1ccccc1C2Nc1ccncc1
204 to 208	COc1ccc2nc(COc3ccc(CC(S)C(N)=O)cc3)n(C)c2c1 (configuration not stated)
163 to 165	CC(=O)COc1cc(=O)oc2ccccc12
127 to 128	CCCCc1csc2ccc3[nH]c4c(c3c12)CN(Cc1ccccc1)CC4
125	O=c1[nH]nc(OCC2c3ccccc3-c3ccccc32)o1
266 to 268	O=c1[nH]c2sccc2c2ccccc12
82 to 83	O=C(Nc1ccc(-n2cccn2)c(F)c1)OCc1ccccc1
204	Cc1nn(C)c(NC(=O)Nc2ccccc2)c1C1=CCCC1
45 to 60	CCCSC(C)c1c(-c2ccc(S(C)(=O)=O)cc2)cnn(-c2ccc(F)cc2)c1=O (configuration not stated)
77 to 99	COc1cc2c(cc1Nc1ncc(Cl)c(Nc3ccccc3S(C)(=O)=O)n1)CCN(CC(=O)N(C)C)CC2
65 to 70	COC(=O)[C@H](CC(=O)c1ccc2oc3ccccc3c2c1)NC(=O)c1ccccc1
141 to 143	Cc1ccccc1C(Oc1cc(OCc2ccoc2)ccc1C#N)C(=O)O (racemic)
76.8 to 77.7	CCCCc1c(-c2cc(C)c(OC)c(C)c2)[nH]c2ccccc12
212 to 214	O=C(C1=CNCCS1)c1ccc(F)cc1
91 to 92	Cc1ccc(-c2ccc3c(c2)C=C(CO)CCO3)cc1
157 to 158	COc1cccc(-c2cnn(-c3cccc(C(=O)O)c3)c2)c1

melting point [°C]	SMILES
258	O=C(CN1CCOCC1)Nc1cccc2c1C(=O)c1c-2n[nH]c1-c1ccc(N2CCOCC2)cc1
182 to 185	COc1cc(C(N)=O)cc([N+](=O)[O-])c1OC
214 to 215	O=S(=O)(NCc1ccccc1)c1ccc2nc(S)sc2c1
95 to 96	CCc1oc(-c2ccc(C(F)(F)F)cc2)cc1C=O
115 to 125	O=S(=O)(c1ccccc1)N1C[C@@H](c2c[nH]c3ccccc23)[C@H](c2cn3c4c(cccc24)CCC3)C1
237 to 238	CN(C)c1ncc(-c2cccc(-n3cnc4cc(-n5cccc5)ccc43)c2)cn1
119	Cc1cc(SCc2sc(-c3ccc(F)c(F)c3)nc2C)ccc1OCC(=O)O
206 to 208	CCC(Cn1cncn1)(C(=O)O)c1ccc(Cl)cc1Cl (configuration not stated)
154 to 156	CCCCC(CC)C(=O)Nc1ccc(Oc2ccccc2)c2c(=O)c3ccccc3n(C)c12 (configuration not stated)
225 to 227	O=C1NC(=O)c2c1c(-c1ccccc1Cl)cc1c2ccn1CCCO
129 to 130	O=C(NCCOc1cc(-c2ccccc2)on1)c1ccccc1
206 to 208	COCc1cc(-c2nnc3c4ccccc4c(OCc4ncnn4C)nn23)no1
171 to 172	c1ccc(OCC2CN(Cc3nc4ccccc4[nH]3)CCO2)cc1 (racemic)
168 to 169	COc1cc(NS(=O)(=O)c2ccc(Cl)cc2)c(C(=O)O)cc1OC
218 to 220	COc1c(N2CC(C)C(N)C(C)(C)C2)c(F)cc2c(=O)c(C(=O)O)cn(C3CC3)c12 (configuration not stated)
104 to 105	COc1ccc(CNC(=O)c2ccccc2N)cc1
119	COc1ccc(CN(C)CCc2ccc(NC(=O)c3cccc4c(=O)c5cccc(C)c5[nH]c34)cc2)cc1OC
> 250	CCN(CC)C(=O)c1ccc(-c2cc3c(Nc4cccc(Cl)c4)ncnc3[nH]2)cc1
150	CSc1ccc(C=CC(=O)c2ccc(N(C)C)cc2)cc1
135	COc1ccc(C(=O)c2cccc3c2ccn3S(=O)(=O)c2ccc(C)cc2)cc1
